The record followed here is ChEMBL document CHEMBL5465560, “Selectivity Literature for EUbOPEN Chemogenomic Library” (2024).

Assay [1] concerns the target ALK tyrosine kinase receptor (Homo sapiens, UniProt Q9UM73). To be noted: at 10 µM.
For assay [2], the target named is Ribosomal protein S6 kinase alpha-5 (Homo sapiens) (UniProt O75582). As to conditions: at 10 µM.
In assay [3] the target is Macrophage colony-stimulating factor 1 receptor (Homo sapiens) (UniProt P07333). Nature of the assay: Selectivity interaction (Millipore kinase profiler) EUB0000124b CSF1R. To be noted: at 10 µM.
The target in assay [4] is T1, Alpha-1A adrenergic receptor (Homo sapiens) (UniProt P35348).
T1 sequence (whole entry): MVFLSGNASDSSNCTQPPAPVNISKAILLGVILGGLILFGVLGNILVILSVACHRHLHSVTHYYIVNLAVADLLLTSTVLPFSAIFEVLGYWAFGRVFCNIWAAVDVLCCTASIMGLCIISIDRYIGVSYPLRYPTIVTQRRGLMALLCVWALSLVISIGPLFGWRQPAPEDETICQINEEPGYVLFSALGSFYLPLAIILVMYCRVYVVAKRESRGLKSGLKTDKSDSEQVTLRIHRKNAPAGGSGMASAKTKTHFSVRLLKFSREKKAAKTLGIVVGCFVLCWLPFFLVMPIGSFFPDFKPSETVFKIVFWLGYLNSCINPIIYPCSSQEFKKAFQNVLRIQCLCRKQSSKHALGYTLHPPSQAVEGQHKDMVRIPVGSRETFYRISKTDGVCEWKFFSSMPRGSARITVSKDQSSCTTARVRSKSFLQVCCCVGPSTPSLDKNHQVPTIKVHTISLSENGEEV
Nature of the assay: Selectivity interaction (Eurofins CEREP Diversity Profile (receptors and ion channels)) EUB0000279b ADRA1A. To be noted: at 10 µM.

Assay [5] has as its target T2, Protein arginine N-methyltransferase 7 (Homo sapiens) (UniProt Q9NVM4).
T2 sequence (whole entry): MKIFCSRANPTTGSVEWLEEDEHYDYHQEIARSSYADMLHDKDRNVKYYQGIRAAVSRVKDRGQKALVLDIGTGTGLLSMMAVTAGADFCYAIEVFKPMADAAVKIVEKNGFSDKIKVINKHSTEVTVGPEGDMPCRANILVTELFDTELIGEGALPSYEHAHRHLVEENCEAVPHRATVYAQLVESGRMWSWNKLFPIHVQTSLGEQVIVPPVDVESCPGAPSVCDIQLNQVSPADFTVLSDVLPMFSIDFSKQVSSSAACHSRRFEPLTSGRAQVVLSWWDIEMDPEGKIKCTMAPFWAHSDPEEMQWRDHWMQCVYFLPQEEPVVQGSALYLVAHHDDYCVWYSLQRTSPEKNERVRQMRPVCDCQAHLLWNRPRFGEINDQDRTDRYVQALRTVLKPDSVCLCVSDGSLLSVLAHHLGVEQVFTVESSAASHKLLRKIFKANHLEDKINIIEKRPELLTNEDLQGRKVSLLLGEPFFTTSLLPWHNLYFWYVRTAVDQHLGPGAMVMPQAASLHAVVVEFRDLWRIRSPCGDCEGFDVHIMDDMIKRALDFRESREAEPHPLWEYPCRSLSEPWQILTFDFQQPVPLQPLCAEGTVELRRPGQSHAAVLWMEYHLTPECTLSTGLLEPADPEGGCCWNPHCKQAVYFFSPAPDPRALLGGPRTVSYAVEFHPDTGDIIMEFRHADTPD
Nature of the assay: Selectivity interaction (Methyltransferase screen (radiometric assays, panel of 8 PRMTs, 21 protein lysine methyltransferases, 3 DNA methyltransferases, and one RNA methyltransferase)) EUB0000271b PRMT7.

Assay [6] deals with STE20-like serine/threonine-protein kinase (Homo sapiens, UniProt Q9H2G2). Nature of the assay: Selectivity interaction (KinomeScan (DiscoverX)) EUB0000045b SLK.
For assay [7], the system named is Epidermal growth factor receptor (Homo sapiens), P00533 [UNDEFINED MUTATION]. Description: Selectivity interaction (KinomeScan (DiscoverX)) EUB0000045b EGFR. As to conditions: at 10 µM.
Assay [8] has as its target Histone-lysine N-methyltransferase, H3 lysine-79 specific (Homo sapiens, UniProt Q8TEK3). As to conditions: at 10 µM.
Assay [9] deals with T3, Dual specificity mitogen-activated protein kinase kinase 6 (Homo sapiens) (UniProt P52564).
T3 sequence (whole entry): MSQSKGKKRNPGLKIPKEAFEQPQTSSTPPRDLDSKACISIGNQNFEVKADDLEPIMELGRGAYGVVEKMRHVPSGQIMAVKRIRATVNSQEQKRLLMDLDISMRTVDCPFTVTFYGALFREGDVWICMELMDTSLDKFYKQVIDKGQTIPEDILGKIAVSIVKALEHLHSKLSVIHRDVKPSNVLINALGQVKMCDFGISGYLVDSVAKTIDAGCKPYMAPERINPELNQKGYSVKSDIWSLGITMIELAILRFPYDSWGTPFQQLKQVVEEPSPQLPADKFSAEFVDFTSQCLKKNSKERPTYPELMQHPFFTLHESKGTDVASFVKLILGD
Nature of the assay: Selectivity interaction (ActivX KiNativ screen (kinase selectivity in THP-1 cell lysates)) EUB0000639a MAP2K6. In kind it is subcellular. As to conditions: lysate, at 0.2 µM.

The target in assay [10] is Serine/threonine-protein kinase 33 (Homo sapiens) (UniProt Q9BYT3). Description: Selectivity interaction (KinomeScan (DiscoverX)) EUB0001619a STK33. To be noted: at 1 µM.

Some results are limits rather than exact numbers.

STE20-like serine/threonine-protein kinase, sequence (Q9H2G2 whole entry, looked up): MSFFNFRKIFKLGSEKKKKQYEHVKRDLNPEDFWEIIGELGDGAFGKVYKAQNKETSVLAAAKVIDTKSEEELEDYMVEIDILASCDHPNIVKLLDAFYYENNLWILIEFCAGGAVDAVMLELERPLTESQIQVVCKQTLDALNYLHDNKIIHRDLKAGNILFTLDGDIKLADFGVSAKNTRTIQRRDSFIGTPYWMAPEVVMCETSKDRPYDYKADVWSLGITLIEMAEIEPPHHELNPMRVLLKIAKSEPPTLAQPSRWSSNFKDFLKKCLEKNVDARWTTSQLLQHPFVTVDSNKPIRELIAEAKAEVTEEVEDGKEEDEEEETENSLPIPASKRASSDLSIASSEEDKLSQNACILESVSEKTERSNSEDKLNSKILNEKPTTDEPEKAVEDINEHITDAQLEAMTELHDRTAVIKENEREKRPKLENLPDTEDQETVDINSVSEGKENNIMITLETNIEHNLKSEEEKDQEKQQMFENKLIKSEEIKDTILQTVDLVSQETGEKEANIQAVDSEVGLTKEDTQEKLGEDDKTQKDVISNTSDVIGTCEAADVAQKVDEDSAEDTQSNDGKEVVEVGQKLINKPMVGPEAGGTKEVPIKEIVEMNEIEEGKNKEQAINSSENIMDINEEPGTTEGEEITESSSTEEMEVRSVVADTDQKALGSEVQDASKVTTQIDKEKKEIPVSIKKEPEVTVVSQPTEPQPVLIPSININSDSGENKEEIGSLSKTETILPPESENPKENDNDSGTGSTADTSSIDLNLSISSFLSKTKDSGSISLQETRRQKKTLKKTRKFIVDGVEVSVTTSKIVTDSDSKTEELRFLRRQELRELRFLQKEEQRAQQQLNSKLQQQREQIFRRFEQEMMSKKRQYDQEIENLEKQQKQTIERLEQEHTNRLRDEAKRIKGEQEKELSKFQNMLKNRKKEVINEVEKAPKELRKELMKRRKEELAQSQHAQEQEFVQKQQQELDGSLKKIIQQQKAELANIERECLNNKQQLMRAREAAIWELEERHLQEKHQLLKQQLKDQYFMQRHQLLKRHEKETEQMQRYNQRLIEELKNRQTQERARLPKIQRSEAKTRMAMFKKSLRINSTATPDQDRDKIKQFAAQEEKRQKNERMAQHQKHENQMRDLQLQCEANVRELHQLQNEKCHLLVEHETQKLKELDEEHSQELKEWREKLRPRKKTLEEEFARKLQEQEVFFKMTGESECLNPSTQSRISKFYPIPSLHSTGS
Epidermal growth factor receptor (Homo sapiens), P00533 [UNDEFINED MUTATION], sequence (P00533 whole entry, looked up, change not shown): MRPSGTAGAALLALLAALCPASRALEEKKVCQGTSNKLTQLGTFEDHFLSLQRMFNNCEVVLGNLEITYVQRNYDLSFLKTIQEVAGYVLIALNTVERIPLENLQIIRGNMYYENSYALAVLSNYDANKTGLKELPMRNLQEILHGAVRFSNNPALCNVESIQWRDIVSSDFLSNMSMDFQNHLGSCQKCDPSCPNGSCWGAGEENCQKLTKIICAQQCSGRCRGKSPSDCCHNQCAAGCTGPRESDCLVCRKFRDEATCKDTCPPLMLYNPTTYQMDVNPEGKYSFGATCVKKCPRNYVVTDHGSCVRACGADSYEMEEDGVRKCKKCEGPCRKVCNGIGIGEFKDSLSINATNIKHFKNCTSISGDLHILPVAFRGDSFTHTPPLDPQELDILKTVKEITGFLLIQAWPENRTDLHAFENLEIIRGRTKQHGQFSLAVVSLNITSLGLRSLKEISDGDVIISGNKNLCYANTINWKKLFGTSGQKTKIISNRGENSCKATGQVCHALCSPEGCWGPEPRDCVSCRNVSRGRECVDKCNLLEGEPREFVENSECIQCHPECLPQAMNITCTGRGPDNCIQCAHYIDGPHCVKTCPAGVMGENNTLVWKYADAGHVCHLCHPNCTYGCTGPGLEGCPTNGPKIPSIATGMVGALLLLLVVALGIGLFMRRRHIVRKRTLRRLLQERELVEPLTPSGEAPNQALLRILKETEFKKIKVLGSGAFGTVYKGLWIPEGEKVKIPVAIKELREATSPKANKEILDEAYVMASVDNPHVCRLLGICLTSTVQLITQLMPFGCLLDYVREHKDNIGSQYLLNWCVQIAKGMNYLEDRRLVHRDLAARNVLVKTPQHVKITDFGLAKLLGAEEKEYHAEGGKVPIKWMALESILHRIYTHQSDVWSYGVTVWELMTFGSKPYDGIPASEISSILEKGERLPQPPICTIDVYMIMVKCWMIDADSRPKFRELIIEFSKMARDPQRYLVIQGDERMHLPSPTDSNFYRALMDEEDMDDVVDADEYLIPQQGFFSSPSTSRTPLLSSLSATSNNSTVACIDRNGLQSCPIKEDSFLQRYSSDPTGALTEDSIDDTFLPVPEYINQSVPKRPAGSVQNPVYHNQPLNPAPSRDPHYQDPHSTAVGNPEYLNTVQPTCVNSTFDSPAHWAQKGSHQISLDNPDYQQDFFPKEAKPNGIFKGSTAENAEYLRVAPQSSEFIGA
Histone-lysine N-methyltransferase, H3 lysine-79 specific, sequence (Q8TEK3 whole entry, looked up): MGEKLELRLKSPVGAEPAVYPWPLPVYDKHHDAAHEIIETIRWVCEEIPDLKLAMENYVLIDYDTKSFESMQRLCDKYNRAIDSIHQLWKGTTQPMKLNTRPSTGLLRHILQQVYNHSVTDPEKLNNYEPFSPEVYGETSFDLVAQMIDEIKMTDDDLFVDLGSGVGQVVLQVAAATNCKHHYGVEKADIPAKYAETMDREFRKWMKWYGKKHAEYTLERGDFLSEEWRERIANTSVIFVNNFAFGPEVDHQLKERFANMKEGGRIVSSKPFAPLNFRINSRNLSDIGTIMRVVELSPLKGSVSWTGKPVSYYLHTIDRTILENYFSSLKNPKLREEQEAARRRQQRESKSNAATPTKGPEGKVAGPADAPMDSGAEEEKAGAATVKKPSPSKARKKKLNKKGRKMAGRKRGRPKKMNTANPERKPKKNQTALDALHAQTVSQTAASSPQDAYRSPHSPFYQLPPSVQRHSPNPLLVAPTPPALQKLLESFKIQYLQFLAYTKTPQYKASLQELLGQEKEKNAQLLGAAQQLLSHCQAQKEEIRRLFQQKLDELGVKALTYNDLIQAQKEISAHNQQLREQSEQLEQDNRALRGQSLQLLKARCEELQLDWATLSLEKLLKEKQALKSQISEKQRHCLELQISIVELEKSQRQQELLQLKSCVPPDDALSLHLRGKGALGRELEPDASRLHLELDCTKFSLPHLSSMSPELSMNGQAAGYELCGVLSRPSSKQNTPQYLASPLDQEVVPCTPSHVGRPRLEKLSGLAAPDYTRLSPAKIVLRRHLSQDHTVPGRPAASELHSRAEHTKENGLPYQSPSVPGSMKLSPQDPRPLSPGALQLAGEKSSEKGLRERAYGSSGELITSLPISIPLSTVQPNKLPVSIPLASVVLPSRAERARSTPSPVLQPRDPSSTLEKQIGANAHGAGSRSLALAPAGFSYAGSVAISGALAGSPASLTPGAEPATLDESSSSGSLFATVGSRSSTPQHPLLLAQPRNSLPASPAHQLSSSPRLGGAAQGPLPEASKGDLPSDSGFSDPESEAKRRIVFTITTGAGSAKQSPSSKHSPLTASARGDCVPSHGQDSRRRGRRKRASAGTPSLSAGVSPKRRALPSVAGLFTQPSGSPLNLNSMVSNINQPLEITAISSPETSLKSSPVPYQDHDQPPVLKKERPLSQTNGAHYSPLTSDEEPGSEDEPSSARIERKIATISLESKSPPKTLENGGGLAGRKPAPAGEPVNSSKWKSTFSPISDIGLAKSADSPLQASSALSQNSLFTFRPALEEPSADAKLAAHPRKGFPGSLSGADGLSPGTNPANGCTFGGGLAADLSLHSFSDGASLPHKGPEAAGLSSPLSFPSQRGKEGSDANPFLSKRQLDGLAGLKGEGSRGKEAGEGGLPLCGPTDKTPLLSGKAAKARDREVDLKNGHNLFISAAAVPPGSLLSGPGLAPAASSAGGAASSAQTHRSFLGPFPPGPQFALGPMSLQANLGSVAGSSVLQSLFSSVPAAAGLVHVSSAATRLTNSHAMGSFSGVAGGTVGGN
Serine/threonine-protein kinase 33 (Homo sapiens), sequence (Q9BYT3 whole entry, looked up): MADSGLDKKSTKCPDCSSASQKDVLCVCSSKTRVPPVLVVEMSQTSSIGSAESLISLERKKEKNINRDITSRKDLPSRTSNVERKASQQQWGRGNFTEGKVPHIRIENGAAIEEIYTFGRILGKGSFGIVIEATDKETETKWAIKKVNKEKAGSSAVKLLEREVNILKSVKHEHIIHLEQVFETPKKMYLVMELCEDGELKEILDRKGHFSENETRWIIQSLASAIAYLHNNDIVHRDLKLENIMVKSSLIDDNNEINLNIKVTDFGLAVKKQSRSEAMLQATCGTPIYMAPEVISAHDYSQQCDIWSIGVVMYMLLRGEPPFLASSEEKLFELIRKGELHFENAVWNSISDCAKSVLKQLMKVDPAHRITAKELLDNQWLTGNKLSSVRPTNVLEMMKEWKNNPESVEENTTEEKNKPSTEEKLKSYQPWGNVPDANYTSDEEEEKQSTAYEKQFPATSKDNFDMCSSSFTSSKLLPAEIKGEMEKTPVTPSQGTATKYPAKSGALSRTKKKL

For the molecule `Cc1cc([C@@H](C)Nc2ccccc2C(=O)O)c2nc(N3CCOCC3)cc(=O)n2c1` [AZD-6482], the % of control in assay [1] amounted to 100%.
For the molecule `CCN(CC)CCCCNc1ncc2cc(-c3cc(OC)cc(OC)c3)c(NC(=O)NC(C)(C)C)nc2n1`, the % of control in [2] worked out at 100%.
In turn, `CC(=O)Nc1cccc(-n2c(=O)n(C3CC3)c(=O)c3c(Nc4ccc(I)cc4F)n(C)c(=O)c(C)c32)c1` returned a % of control in [3] of 128%.
In assay [4], `CC(=O)c1cc(-c2ccccc2OCC2CC2)c2ncccn12` had a % of control of 94%.
With `Cc1cc(C)cc([C@@H]2c3cc(C)ccc3NC(=O)CN2C(=O)c2ccc(Br)s2)c1`, the values for the % of activity in [5] (at 1 µM) and in assay [5] (at 10 µM) were 97.7% and 103%, respectively.
For the molecule `C=CC(=O)Nc1cc(-n2c(=O)ccc3cnc4ccc(-c5ccc(NS(C)(=O)=O)cc5)cc4c32)ccc1C`, the % of control in assay [6] (at 1 µM) amounted to 59%; in assay [6] (at 10 µM), 100%; in assay [7], 57%.
In the case of `CNCCN1CCC(c2cc(CN(C)C(=O)c3cccc(Oc4ccccc4)c3)ccn2)CC1`, the % activity in [8] was over 90%.
`CC[C@@H]1[C@H](F)C(=O)N[C@@H]1COc1nccc2cc(C(N)=O)c(OC)cc12` [ZIMLOVISERTIB] came in with a % of inhibition in assay [9] of 12.8%.
In [10], `N#Cc1cccc(-c2c[nH]c3ncnc(N4CCOCC4)c23)c1` had a % of control of 60%.
